Target: T1, human GLP-1 receptor (Homo sapiens, UniProt P43220)
T1 construct: expressed in transfected cells
Test: GLP-1R cAMP Assay
Assay type: cell-based
Details: cAMP accumulation in CHO cells stably overexpressing the human GLP-1 receptor; 30 min treatment; HitHunter cAMP kit; read-out: EC50
Procedure: cAMP accumulation was measured in Chinese hamster ovary (CHO) cells stably overexpressing the human GLP-1 receptor using the HitHunter cAMP Assay for Small Molecules Kit (Eurofins). Briefly, cells were grown in Ham's F12 Nutrient Mix with 10% FBS, and lifted with Cell Dissociation Buffer, Enzyme free, PBS based (ThermoFisher). […] The anti-cAMP antibody reagent was then added to cells at a 1:2 ratio and 5 μL of mixture was seeded in 384-well small volume white assay plates, at 10,000 cells/well. Cells were then treated with 50 nL compound using an ECHO 550 acoustic dispenser (Labcyte) in a 20-point dose response format in triplicate for 30 min. Cells were then lysed, and detection reagents added according to the manufacturer's protocol. After overnight incubation, luminescence was measured using a Perkin Elmer Envision plate reader. Dose response curves were analyzed using GraphPad Prism 9.0.

T1 sequence (P43220 24-463): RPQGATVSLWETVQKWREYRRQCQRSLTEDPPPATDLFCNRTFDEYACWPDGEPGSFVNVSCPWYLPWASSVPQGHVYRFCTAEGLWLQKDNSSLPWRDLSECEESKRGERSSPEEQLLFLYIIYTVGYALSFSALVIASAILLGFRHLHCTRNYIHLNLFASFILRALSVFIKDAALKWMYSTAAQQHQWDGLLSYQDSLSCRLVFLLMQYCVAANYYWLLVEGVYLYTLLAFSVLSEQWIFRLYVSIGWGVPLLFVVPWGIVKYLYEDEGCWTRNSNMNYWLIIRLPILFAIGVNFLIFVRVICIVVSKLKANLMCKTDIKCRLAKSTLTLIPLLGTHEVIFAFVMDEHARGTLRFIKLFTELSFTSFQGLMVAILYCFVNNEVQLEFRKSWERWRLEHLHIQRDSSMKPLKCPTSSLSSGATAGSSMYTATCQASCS

Row | EC50 | SMILES
1 | < 50 nM | Cc1ccc(N(C)c2cccc(C(=O)N3CCN(Cc4nc5ccc(C(=O)O)cc5n4C[C@@H]4CCO4)CC3)c2)c(C)c1 [Compound 45, 2-[(4-{3-[(2,4-dimethylphenyl)(methyl)amino]benzoyl}piperazin-1-yl)methyl]-1-{[(2S)-oxetan-2-yl]methyl}-1H-1,3-benzodiazole-6-carboxylic acid]
2 | > 500 nM | Cc1ccc(Nc2cccc(C(=O)N3CCN(Cc4nc5ccc(C(=O)O)cc5n4C[C@@H]4CCO4)CC3)c2)c(Cl)c1 [Compound 50, 2-[(4-{3-[(2-chloro-4-methylphenyl)amino]benzoyl}piperazin-1-yl)methyl]-1-{[(2S)-oxetan-2-yl]methyl}-1H-1,3-benzodiazole-6-carboxylic acid]
3 | < 50 nM | CCN(c1cccc(C(=O)N2CCN(Cc3nc4ccc(C(=O)O)cc4n3C[C@@H]3CCO3)CC2)c1)c1ccc(C)cc1Cl [Compound 52, 2-[(4-{3-[(2-chloro-4-methylphenyl)(ethyl)amino]benzoyl}piperazin-1-yl)methyl]-1-{[(2S)-oxetan-2-yl]methyl}-1H-1,3-benzodiazole-6-carboxylic acid]
4 | 50 to 500 nM | CCn1cncc1Cn1c(CN2CCN(C(=O)c3cccc(Cc4ccc(C)cc4Cl)c3)CC2)nc2ccc(C(=O)O)cc21 [Compound 56, 2-[(4-{3-[(2-chloro-4-methylphenyl)methyl]benzoyl}piperazin-1-yl)methyl]-1-[(1-ethyl-1H-imidazol-5-yl)methyl]-1H-1,3-benzodiazole-6-carboxylic acid]
5 | > 500 nM | CCn1cncc1Cn1c(CN2CCN(C(=O)c3cccc(Nc4ccc(C)cc4Cl)c3)CC2)nc2ccc(C(=O)O)cc21 [Compound 58, 2-[(4-{3-[(2-chloro-4-methylphenyl)amino]benzoyl}piperazin-1-yl)methyl]-1-[(1-ethyl-1H-imidazol-5-yl)methyl]-1H-1,3-benzodiazole-6-carboxylic acid]
6 | 50 to 500 nM | CCn1cncc1Cn1c(CN2CCN(C(=O)c3cccc(COc4ccc(C)cc4Cl)c3)CC2)nc2ccc(C(=O)O)cc21 [Compound 65, 2-[(4-{3-[(2-chloro-4-methylphenoxy)methyl]benzoyl}piperazin-1-yl)methyl]-1-[(1-ethyl-1H-imidazol-5-yl)methyl]-1H-1,3-benzodiazole-6-carboxylic acid]
7 | > 500 nM | N#Cc1ccc(COc2cccc(C(=O)N3CCN(Cc4nc5ccc(C(=O)O)cc5n4C[C@@H]4CCO4)CC3)c2)c(F)c1 [Compound 66, 2-[(4-{3-[(4-cyano-2-fluorophenyl)methoxy]benzoyl}piperazin-1-yl)methyl]-1-{[(2S)-oxetan-2-yl]methyl}-1H-1,3-benzodiazole-6-carboxylic acid]
8 | > 500 nM | CCn1cncc1Cn1c(CN2CCN(C(=O)c3cccc(COc4ccc(C#N)cc4F)c3)CC2)nc2ccc(C(=O)O)cc21 [Compound 69, 2-[(4-{3-[(4-cyano-2-fluorophenoxy)methyl]benzoyl}piperazin-1-yl)methyl]-1-[(1-ethyl-1H-imidazol-5-yl)methyl]-1H-1,3-benzodiazole-6-carboxylic acid]
9 | < 50 nM | Cc1ccc(N(C)c2ccc(C)c(C(=O)N3CCN(Cc4nc5ccc(C(=O)O)cc5n4C[C@@H]4CCO4)CC3)c2)c(Cl)c1 [Compound 75, 2-[(4-{5-[(2-chloro-4-methylphenyl)(methyl)amino]-2-methylbenzoyl}piperazin-1-yl)methyl]-1-{[(2S)-oxetan-2-yl]methyl}-1H-1,3-benzodiazole-6-carboxylic acid]
10 | < 50 nM | CCn1cncc1Cn1c(CN2CCN(C(=O)c3cc(N(C)c4ccc(C)cc4Cl)ccc3C)CC2)nc2ccc(C(=O)O)cc21 [Compound 76, 2-[(4-{5-[(2-chloro-4-methylphenyl)(methyl)amino]-2-methylbenzoyl}piperazin-1-yl)methyl]-1-[(1-ethyl-1H-imidazol-5-yl)methyl]-1H-1,3-benzodiazole-6-carboxylic acid]
11 | > 500 nM | CCn1cncc1Cn1c(CN2CCN(C(=O)c3cccc(CN(C)c4ccc(C)cc4Cl)c3)CC2)nc2ccc(C(=O)O)cc21 [Compound 77, 2-{[4-(3-{[(2-chloro-4-methylphenyl)(methyl)amino]methyl}benzoyl)piperazin-1-yl]methyl}-1-[(1-ethyl-1H-imidazol-5-yl)methyl]-1H-1,3-benzodiazole-6-carboxylic acid]
12 | > 500 nM | CCn1cncc1Cn1c(CN2CCN(C(=O)c3cccc(CNc4ccc(C)cc4Cl)c3)CC2)nc2ccc(C(=O)O)cc21 [Compound 79, 2-{[4-(3-{[(2-chloro-4-methylphenyl)amino]methyl}benzoyl)piperazin-1-yl]methyl}-1-[(1-ethyl-1H-imidazol-5-yl)methyl]-1H-1,3-benzodiazole-6-carboxylic acid]

The next lines start with the molecule.

Row | SMILES | EC50
13 | CCn1cncc1Cn1c(CN2CCN(C(=O)c3ccc(COc4ccc(Cl)cc4Cl)o3)CC2)nc2ccc(C(=O)O)cc21 [Compound 47, 2-[(4-{5-[(2,4-dichlorophenoxy)methyl]furan-2-carbonyl}piperazin-1-yl)methyl]-1-[(1-ethyl-1H-imidazol-5-yl)methyl]-1H-1,3-benzodiazole-6-carboxylic acid] | < 50 nM
14 | O=C(O)c1ccc2nc(CN3CCN(C(=O)c4cccc(Cc5ccc(Cl)cc5Cl)c4)CC3)n(C[C@@H]3CCO3)c2c1 [Compound 48, 2-[(4-{3-[(2,4-dichlorophenyl)methyl]benzoyl}piperazin-1-yl)methyl]-1-{[(2S)-oxetan-2-yl]methyl}-1H-1,3-benzodiazole-6-carboxylic acid] | 50 to 500 nM
15 | CN(C)C(=O)c1ccc(OCc2ccc(C(=O)N3CCN(Cc4nc5ccc(C(=O)O)cc5n4C[C@@H]4CCO4)CC3)o2)c(F)c1 [Compound 49, 2-{[4-(5-{[4-(dimethylcarbamoyl)-2-fluorophenoxy]methyl}furan-2-carbonyl)piperazin-1-yl]methyl}-1-{[(2S)-oxetan-2-yl]methyl}-1H-1,3-benzodiazole-6-carboxylic acid] | > 500 nM
16 | Cc1ccc(N(C)c2cccc(C(=O)N3CCN(Cc4nc5ccc(C(=O)O)cc5n4C[C@@H]4CCO4)CC3)c2)c(Cl)c1 [Compound 51, 2-[(4-{3-[(2-chloro-4-methylphenyl)(methyl)amino]benzoyl}piperazin-1-yl)methyl]-1-{[(2S)-oxetan-2-yl]methyl}-1H-1,3-benzodiazole-6-carboxylic acid] | < 50 nM
17 | O=C(O)c1ccc2nc(CN3CCc4[nH]c5ccc(OC(F)(F)F)cc5c4C3)n(C[C@@H]3CCO3)c2c1 [Compound 53, 1-{[(2S)-oxetan-2-yl]methyl}-2-{[8-(trifluoromethoxy)-1H,2H,3H,4H,5H-pyrido[4,3-b]indol-2-yl]methyl}-1H-1,3-benzodiazole-6-carboxylic acid] | > 500 nM
18 | CCn1cncc1Cn1c(CN2CCN(C(=O)c3cccc(N(C)c4ccc(C)cc4Cl)c3)CC2)nc2ccc(C(=O)O)cc21 [Compound 54, 2-[(4-{3-[(2-chloro-4-methylphenyl)(methyl)amino]benzoyl}piperazin-1-yl)methyl]-1-[(1-ethyl-1H-imidazol-5-yl)methyl]-1H-1,3-benzodiazole-6-carboxylic acid] | 50 to 500 nM
19 | CCn1cncc1Cn1c(CN2CCN(C(=O)c3ccc(COc4ccc(C)cc4C)o3)CC2)nc2ccc(C(=O)O)cc21 [Compound 55, 2-[(4-{5-[(2,4-dimethylphenoxy)methyl]furan-2-carbonyl}piperazin-1-yl)methyl]-1-[(1-ethyl-1H-imidazol-5-yl)methyl]-1H-1,3-benzodiazole-6-carboxylic acid] | < 50 nM
20 | CCn1cncc1Cn1c(CN2CCN(Cc3ccc(COc4ccc(Cl)cc4Cl)o3)CC2)nc2ccc(C(=O)O)cc21 [Compound 63, 2-{[4-({5-[(2,4-dichlorophenoxy)methyl]furan-2-yl}methyl)piperazin-1-yl]methyl}-1-[(1-ethyl-1H-imidazol-5-yl)methyl]-1H-1,3-benzodiazole-6-carboxylic acid] | < 50 nM
21 | Cc1ccc(OCc2cccc(C(=O)N3CCN(Cc4nc5ccc(C(=O)O)cc5n4C[C@@H]4CCO4)CC3)c2)c(Cl)c1 [Compound 64, 2-[(4-{3-[(2-chloro-4-methylphenoxy)methyl]benzoyl}piperazin-1-yl)methyl]-1-{[(2S)-oxetan-2-yl]methyl}-1H-1,3-benzodiazole-6-carboxylic acid] | 50 to 500 nM
22 | CCn1cncc1Cn1c(CN2CCN(C(=O)c3cccc(OCc4ccc(C#N)cc4F)c3)CC2)nc2ccc(C(=O)O)cc21 [Compound 67, 2-[(4-{3-[(4-cyano-2-fluorophenyl)methoxy]benzoyl}piperazin-1-yl)methyl]-1-[(1-ethyl-1H-imidazol-5-yl)methyl]-1H-1,3-benzodiazole-6-carboxylic acid] | > 500 nM
23 | N#Cc1ccc(OCc2cccc(C(=O)N3CCN(Cc4nc5ccc(C(=O)O)cc5n4C[C@@H]4CCO4)CC3)c2)c(F)c1 [Compound 68, 2-[(4-{3-[(4-cyano-2-fluorophenoxy)methyl]benzoyl}piperazin-1-yl)methyl]-1-{[(2S)-oxetan-2-yl]methyl}-1H-1,3-benzodiazole-6-carboxylic acid] | > 500 nM
24 | Cc1ccc(S(=O)(=O)Nc2cccc(C(=O)N3CCN(Cc4nc5ccc(C(=O)O)cc5n4C[C@@H]4CCO4)CC3)c2)cc1 [Compound 70, 2-({4-[3-(4-methylbenzenesulfonamido)benzoyl]piperazin-1-yl}methyl)-1-{[(2S)-oxetan-2-yl]methyl}-1H-1,3-benzodiazole-6-carboxylic acid] | > 500 nM
25 | CCn1cncc1Cn1c(CN2CCN(C(=O)c3ccc(COc4ccc(Cl)cc4Cl)s3)CC2)nc2ccc(C(=O)O)cc21 [Compound 71, 2-[(4-{5-[(2,4-dichlorophenoxy)methyl]thiophene-2-carbonyl}piperazin-1-yl)methyl]-1-[(1-ethyl-1H-imidazol-5-yl)methyl]-1H-1,3-benzodiazole-6-carboxylic acid] | > 500 nM

Reference: patent US20230089073A1 (Carmot Therapeutics, Inc., priority 2021, published 2023)
